Test results reported in patent US20050004155A1, “Use of methylnaltrexone to treat irritable bowel syndrome” (priority 2003, published 2005).

Key:
[1] = system: normal subjects; test: Oral-cecal transit time by lactulose hydrogen breath test; type: in vivo, human; settings: 12 doses of 0.3 mg/kg every 6 hours intravenous; 12 normal subjects not receiving opioids; mean±SD; baseline mean 101.3±29.4 minutes; P<0.05
Method: (§1) With approval from the Institutional Review Board, 12 normal subjects (8 males and 4 non-pregnant females) participated in a controlled trial. The mean age was 29.3±5.8 (mean+/−standard deviation [SD]) years. […] Subjects were administered 12 consecutive doses of methylnaltrexone at a dosage rate of 0.3 mg/kg every 6 hours via intravenous injection. Methylnaltrexone was dissolved in isotonic saline for administration in this study. No other excipients were present in the administered solution. Oral-cecal transit time was measured prior to the first dose and after the last dose, following repeated dosing for 3 days, using a lactulose hydrogen breath test (Yuan, C. S., et al., Clin. Pharmacol. Ther. 1996;59:469-475). A subjective rating test for possible opioid agonist effects was also employed (Yuan, C. S., et al., Drug Alcohol Dependence 1998;52:161-165). […] The reduction in the means was statistically significant at the level of P<0.05 using the paired t-test and the Wilcoxon signed rank test. […] The absence of statistically significant changes in overall subjective opioid ratings is consistent with the lack of penetration into the central nervous system by methylnaltrexone.

[2] = white crystalline powder; cited from earlier work
[3] = system: normal subjects; test: Adverse effects during repeated intravenous dosing; type: in vivo, human; settings: 12 doses of 0.3 mg/kg every 6 hours intravenous
Method: as §1

[4] = system: patients with constipation-predominant IBS; settings: 16 mg three times a week over eight weeks, cited from earlier work
[5] = system: subjects with IBS of the constipation-predominant and alternating types; settings: 1 mg twice daily for 8 weeks; 25 subjects; cited from earlier work
[6] = system: patients with IBS; settings: 0.4 mg intravenously; 50 patients; versus placebo; cited from earlier work

For C[N@+]1(CC2CC2)CC[C@]23c4c5ccc(O)c4O[C@H]2C(=O)CC[C@@]3(O)[C@H]1C5 [methylnaltrexone, N-methyl-naltrexone bromide], the “oral-cecal transit time after 3 days of treatment” value [1] is given as 82.5 ± 20.7 min, the solubility in water [2] is given as “freely soluble in water” and the adverse effects [3] is given as “No significant adverse effects”.

In the case of C=C1CCC2(O)C3Cc4ccc(OC5OC(C(=O)O)C(O)C(O)C5O)c5c4C2(CCN3CC2CC2)C1O5 (stereo not shown) [nalmefene glucuronide], the gut transit time ([4]; patient reported) is given as “decreased”, the stool frequency ([4]; patient reported) is given as “increased” and the “abdominal pain or bloating” value [4] is given as “did not reduce”. For the same compound, the stool consistency [4] was “not improved”.

For C=CCN1CC[C@]23c4c5ccc(O)c4O[C@H]2C(=O)CC[C@@]3(O)[C@H]1C5 [naloxone], the “adequate symptom relief versus placebo” value [5] is given as “not statistically significantly different”, the “subjective ratings such as severity ratings and pain scores” value [5] is given as “Marginal but non-statistically significant improvements” and the “degree of muscle spasm and relative intensity of pain” value [6] is given as “not associated with any objective or subjective evidence of beneficial effect”.
